In patent US12139492B2 (Endotarget Inc., priority 2021, dated 2024):

Legend:
[1] = test system: Mino cells; test: Antiproliferative effect, MTS cell viability assay, Mino cells; assay type: cell-based; conditions: Homo sapiens, MINO, Mino mantle cell lymphoma cells; read-out: IC50 (anti-proliferation) Mino cells
Procedure, shortened: (§1)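 Cells were exposed to compound at 0, 0.001, 0.01, 0.1, 1 and 10 μM for 72 h. Viability was then measured by MTS assay, reading formazan produced by metabolically active cells as absorbance at 490 nm.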

[2] = test system: JeKo-1 cells; test: Antiproliferative effect, MTS cell viability assay, JeKo-1 cells; assay type: cell-based; conditions: Homo sapiens; JeKo-1 mantle cell lymphoma cells; read-out: IC50 (anti-proliferation) JeKO-1 cells
Procedure, shortened: as §1

[3] = test system: MOLT-4 cell; test: Cell apoptosis by flow cytometry, MOLT-4 cells; assay type: cell-based; conditions: 1 and 10 μM, 72 hours, in vitro
Method: (§2) Cell apoptosis induced by treatment of exemplary compounds was measured by flow cytometry.
(§3) Flow cytometry analysis was performed after staining of the cells with PI and 7-AAD. For PI staining, 0.5×10^6 cells/mL were centrifuged at 1500 rpm for 5 min, supernatant was removed, and cell pellet was gently suspended with 1 ml Krishan buffer and then incubated at 4° C. in the dark for 60 min. Apoptosis was determined by Cytomic's FC500 Flow Cytometer (Beckman Coulter) and the data were analyzed by Win Cycle Multicycle Software (De Novo Software). For the 7-AAD staining, 0.5×10^6 cells were washed with PBS and centrifuged at 1500 rpm for 5 min. Supernatant was removed and the cell pellet was suspended in 100 μL PBS. 10 μL 7-AAD was added to each tube and incubated for 20 min at room temperature in the dark. 7-AAD labeled-cells were analyzed by Cytomic's FC500 Flow Cytometry (Beckman Coulter) and FCS Express Flow Cytometry Data Analysis software (DeNovo Software). For morphologic analysis of apoptosis by light microscopy, cells were incubated with Mock or with […] for 72 h. Control or drug treated-cells were cytospun on glass slides, stained with Wright-Giemsa, and then examined by light microscopy. Morphological changes associated with apoptosis included cellular shrinkage, nuclear condensation, nuclear fragmentation, and formation of apoptotic bodies. […]

[4] = test system: Namalwa cell; test: Cell apoptosis by flow cytometry, Namalwa cells; assay type: cell-based; conditions: 1 and 10 μM, 72 hours, in vitro
Method: as §2, §3

[5] = test system: JeKo-1 cell; test: Cell apoptosis by flow cytometry, JeKo-1 cells; assay type: cell-based; conditions: 0.1, 1, and 10 μM, 72 hours, in vitro
Method: as §2, §3

[6] = test system: Mino cell; test: Cell apoptosis by flow cytometry, Mino cells; assay type: cell-based; conditions: 1 and 10 μM, 72 hours, in vitro
Method: as §2, §3

[7] = test system: primary human CLL cell CTG-3763; test: Ex vivo cell inhibition, Cell Titer Glo viability, primary CLL cell CTG-3763; assay type: cell-based; conditions: 10 nM to 50 μM, 6 days
Method: (§4) Primary human Human Chronic Lymphocytic Leukemia cell lines were used to measure ex vivo cell inhibition by exemplary compounds. The cells were incubated with test compounds at a dose range of 10 nM to 50 μM for 6 days. Cell Titer Glo data were gathered for cell viability evaluation.

[8] = test system: primary human CLL cell CTG-3754; test: Ex vivo cell inhibition, Cell Titer Glo viability, primary CLL cell CTG-3754; assay type: cell-based; conditions: 10 nM to 50 μM, 6 days
Method: as §4

[9] = test system: Jeko-1 xenograft tumor; test: In vivo tumor inhibition efficacy, JeKo-1 xenograft in NOD/SCID mice; conditions: 20 mg/kg daily oral gavage for 3 weeks
Method: JeKo-1 cells were obtained from American Type Culture Collection (ATCC, Manassas, VA). cells were maintained in RPMI 1640 (Life Technologies, Grand Island, NY) supplemented with 10% heat-inactivated fetal bovine serum (56° C. for 30 minutes), penicillin (10,000 units/mL; Sigma, St Louis, Mo), streptomycin (10 mg/mL; Sigma), gentamicin (50 mg/mL; Life Technologies), amphotericin B (25 mg/mL; Sigma), and L-glutamine (200 mM, 29.2 mg/mL; Life Technologies). culture, as previously described (29, 30). JeKo-1 cells (10 million) were subcutaneously implanted into the flank of NOD/SCID mice. When the average tumor volume reached approximately 300 mm^3, the following treatments were administered in cohorts of 5 mice for each treatment: vehicle alone, 20 mg/kg ibrutinib, 20 mg/kg Compound 2, and 20 mg/kg Compound 161 was administered daily via oral gavage for 3 weeks. Tumor growth was monitored every other day by calipers and tumor volume was calculated using the equation: (½(length×width^2)).

[10] = target: T1, BTK (Homo sapiens, UniProt Q06187); test: BTK degradation, DC50 and Dmax of Table 1 (cell line not given); assay type: cell-based; set-up: endogenous in cells
T1 sequence (Q06187 whole entry): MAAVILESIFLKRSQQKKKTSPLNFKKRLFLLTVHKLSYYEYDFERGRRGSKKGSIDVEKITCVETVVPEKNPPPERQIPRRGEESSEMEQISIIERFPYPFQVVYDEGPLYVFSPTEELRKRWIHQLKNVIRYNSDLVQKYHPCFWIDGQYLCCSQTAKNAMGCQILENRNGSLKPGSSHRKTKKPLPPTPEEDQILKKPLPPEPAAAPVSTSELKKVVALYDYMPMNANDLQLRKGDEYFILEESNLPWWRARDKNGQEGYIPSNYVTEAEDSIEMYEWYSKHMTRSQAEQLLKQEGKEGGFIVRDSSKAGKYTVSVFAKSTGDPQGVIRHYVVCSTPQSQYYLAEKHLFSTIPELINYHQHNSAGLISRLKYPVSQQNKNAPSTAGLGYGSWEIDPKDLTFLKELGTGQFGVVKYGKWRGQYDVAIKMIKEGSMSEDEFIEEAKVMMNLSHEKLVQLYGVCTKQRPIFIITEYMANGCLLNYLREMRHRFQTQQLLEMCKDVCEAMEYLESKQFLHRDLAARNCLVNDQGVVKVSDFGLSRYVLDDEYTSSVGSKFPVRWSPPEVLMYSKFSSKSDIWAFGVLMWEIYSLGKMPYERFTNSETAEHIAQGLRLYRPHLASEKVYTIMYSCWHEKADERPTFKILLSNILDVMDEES

[11] = target: T1, BTK; test: Degradation of BTK protein in JeKo-1 cells (Western blot; DC50, Dmax); conditions: JeKo-1 mantle cell lymphoma cells, various concentrations, 24 hours
Method: Namalwa, JeKo-1, or Mino cells were plated in 24-well plates at a density of 10^5 cells/well. Media containing various drug concentrations were added on the day following plating (day 0) and allowed to incubate for 24 hours for Western blot. Media with the tested compound was changed every other day. […] Media were removed and dishes were washed with 1×DPBS. Lysates were made by adding 150 μL of complete lysis solution and scraping cells into a 1.5 mL microcentrifuge tube. Lysates were placed on a rotisserie at 4° C. for 30 min and then spun at 4° C. at 12000 rcf for 10 min. Supernatants were assayed for protein content, snap-frozen, and stored a −80° C. if not run immediately. Then 50 μg of protein was subjected to Western blot protocol. […] They were then imaged on a LICOR infrared scanner.

[12] = target: T1, BTK; test: Degradation of BTK protein in Namalwa cells (Western blot; DC50, Dmax); conditions: Namalwa B lymphocyte cells; various concentrations; 24 hours; Western blot

Dmax [10]: > 90% | DC50 ([10]; concentration giving 50% reduction of BTK expression level): < 10 nM | degradation of BTK protein [11]: dose-dependent degradation | degradation of BTK protein [12]: dose-dependent degradation
Compound: Nc1ncnc2c1c(-c1ccc(Oc3ccccc3)cc1)nn2C1CCN(CCOCCOCCN2CCN(c3ccc4c(c3)CN(C3CCC(=O)NC3=O)C4=O)CC2)CC1 (stereo not shown) [Compound 2, 3-(5-(4-(2-(2-(2-(4-(4-amino-3-(4-phenoxyphenyl)-1H-pyrazolo(3,4-d)pyrimidin-1-yl)piperidin-1-yl)ethoxy)ethoxy)ethyl)piperazin-1-yl)-1-oxoisoindolin-2-yl)piperidine-2,6-dione]
IC50 [1]: < 1000 nM | IC50 [2]: < 1000 nM | induction of cell apoptosis [3]: induction of MOLT-4 cell apoptosis | induction of cell apoptosis [4]: induction of Namalwa cell apoptosis | induction of cell apoptosis [5]: induction of JeKo-1 cell apoptosis | induction of cell apoptosis [6]: induction of Mino cell apoptosis | effect on primary human CLL cell viability [7]: dose-dependent effect | effect on primary human CLL cell viability [8]: dose-dependent effect | efficacy in inhibiting xenograft tumor growth [9]: inhibiting Jeko-1 xenograft tumor growth
